Results taken from patent US8648116B2, “Derivatives of N-(arylamino) sulfonamides including polymorphs as inhibitors of MEK as well as compositions, methods of use and methods for preparing the same” (Ardea Biosciences, Inc., priority 2005, dated 2014).
Marks after values point to notes of the source that are not given here.

Legend:
[1] = tested on: pERK in Colo205 tumors; assay: MEK inhibition (pERK, Western blot) against plasma concentration, tumor; format: in vivo, nu/nu mice
Description: (§1) Human tumors were implanted in nu/nu mice. Compound A was administered orally for 14 days once tumors were approximately 100 mm^3 in size. Tumor growth inhibition (TGI) was determined after 14 days of treatment as the reduction in the size of tumors in treated groups versus vehicle controls. The time to endpoint (TTE) was calculated as the time for the tumor to reach the specified endpoint volume or the last day of the study, whichever came first. Treatment outcome was determined from percent tumor growth delay (% TGD), defined as the percent increase in median TTE of treated versus vehicle-treated control mice. Animals were also monitored for regression responses. Levels of pERK in tumors and brain were determined by Western blots and correlated with plasma levels of Compound A for the pharmacodynamic/pharmacokinetic study. A number of tumor models were evaluated with different doses and dosing regimens. […] The effect of different dosing regimens was evaluated in A375 xenografts.
Female nu/nu mice implanted with Colo205 tumor cells were given a single dose of vehicle or Compound A at 2.5, 5, 10, or 25 mg/kg. Compound levels were determined in plasma samples and pERK levels were determined in tumor and brain samples collected at 2, 6, 12, and 24 hr post-dose. […]

[2] = tested on: A431 epidermoid tumors; assay: Anti-tumor xenograft activity, TGI and TGD (Example 94); format: in vivo, nu/nu mice
Description: as §1
(§2) Female nu/nu mice were implanted with A375 Melanoma, Colo205 Colon Tumor, A431 Epidermoid Tumor or HT-29 Colon Tumor cells, which were allowed to grow to 100-200 mm^3. Compound A or vehicle was administered orally (25 mg/kg, 50 mg/kg or 100 mg/kg), once a day, for 14 days.
(§3) Tumor Growth Inhibition for the groups treated with 25 mg/kg Compound A were calculated for the indicated tumor xenografts. Tumor Growth Inhibition was measured at the end of once daily dosing for 14 days and calculated according to: […]

[3] = tested on: Colo205 colon cancer tumors; assay: as above; format: in vivo, nu/nu mice
Description: as §1, §2, §3

[4] = tested on: A375 melanoma tumors; assay: as above; format: in vivo, nu/nu mice
Description: as §1, §2
Tumor Growth Inhibition for the groups treated with 25 mg/kg Compound A were calculated for the indicated tumor xenografts. Tumor Growth Inhibition was measured at the end of once daily dosing for 14 days and calculated according to:
Female nu/nu mice were implanted with A375 tumor cells, which were allowed to grow to 100-200 mm^3. Compound. […] Tumor Growth Inhibition was measured at the end of once daily dosing for 14 days and calculated according to: […]

[5] = tested on: Complete Freund's Adjuvant induced arthritis; assay: Rat adjuvant arthritis inflammation assay; format: in vivo, rats; settings: 20 mg/kg orally for 5 days
Description: In the rat adjuvant induced arthritis model, Complete Freund's Adjuvant (CFA) is injected into the right hind paw of rats to induce pathologies similar to rheumatoid arthritis in humans. Compound A was administered orally for 5 consecutive days at 2, 6, and 20 mg/kg. Dexamethasone at 5 m g/kg was also administered orally for 5 days. Enbrel at 10 mg/kg was administered by subcutaneous injection on days 1 and 4. CFA was injected into the right hind paw one hour after the first dose on day 1. […] Polyarthritis was scored as the presence of swelling in front paws, tail, nose or ear.

[6] = tested on: HT29 colon cancer tumors; assay: Anti-tumor xenograft activity, TGI (Example 94); format: in vivo, nu/nu mice; settings: 25 mg/kg QD oral, 14 days
Description: as §1
Female nu/nu mice were implanted with A375 Melanoma, Colo205 Colon Tumor, A431 Epidermoid Tumor or HT-29 Colon Tumor cells, which were allowed to grow to 100-200 mm^3. […]
as §3

[7] = tested on: MDA-MB231 breast adenocarcinoma cells; assay: Anchorage-dependent growth inhibition (ATP content, 48 hr); format: cell-based, human
[8] = Pharmacokinetics in cancer patients following multiple doses; settings: 6 mg

COc1cc(F)c(F)c(Nc2ccc(I)cc2F)c1NS(=O)(=O)C1(C[C@H](O)CO)CC1 [Compound A]
pERK formation in tumors ([1]; Colo205 xenografts, pharmacodynamic/pharmacokinetic study): inhibition of pERK formation
EC50 ([1]; Mus musculus, COLO 205, plasma concentration, Colo205-bearing nu/nu mice, single dose 2.5-25 mg/kg, non-linear regression): 73 nM
% TGI ([2]; A431 Epidermoid xenograft, 25 mg/kg QD oral, 14 days): 67%
% TGD, significance ([2]; A431 epidermoid tumors, 25 or 50 mg/kg once daily (QD)): statistically significant
% TGI ([3]; Colo205 Colon xenograft, 25 mg/kg QD oral, 14 days, range from 2 separate studies): 70-123** %
% TGD, significance ([3]; Colo205 colon cancer tumors, 25 or 50 mg/kg once daily (QD)): statistically significant
% TGI ([4]; A375 Melanoma xenograft, 25 mg/kg QD oral, 14 days, range from 2 separate studies): 52-72** %
% TGD, significance ([4]; A375 melanoma tumors, 25 or 50 mg/kg once daily (QD)): statistically significant
% TGI ([4]; A375 xenografts, 12.5 mg/kg BID): 79.5%
% TGI ([4]; A375 xenografts, 25 mg/kg BID): 110.1%
% TGD ([4]; A375 xenografts, 25 mg/kg QD): 143%
% TGI ([4]; A375 xenografts, 25 mg/kg QD): 51.7%
% TGD ([4]; A375 xenografts, 50 mg/kg QD): 233%
% TGI ([4]; A375 xenografts, 50 mg/kg QD): 69.9%
% TGD ([4]; A375 xenografts, 100 mg/kg orally once every two days): 91%
animals without front paw swelling (polyarthritis scoring) [5]: 2 of 6
animals without swelling in the tail (polyarthritis scoring) [5]: 4 of 6
inhibition of paw swelling ([5]; acute and delayed phases): significant reduction in swelling
% TGI [6]: 56%

COc1cc(F)c(F)c(Nc2ccc(I)cc2F)c1NS(=O)(=O)C1(C[C@H](O)CO)CC1
GI50 ([7]; MDA (MDA-MB231), 48 hr, ATP content): > 1000 nM
growth arrest in 2-dimensional anchorage dependent assays ([7]; MDA-MB231 cells): do not show
Rac AUCτ (accumulation index) [8]: 2.07
